Laboratory results reported in patent publication US9309286B2, “Compositions and methods for augmenting permeability barriers” (TUFTS MEDICAL CENTER, priority 2011, dated 2016).
Peptide text beside a SMILES is read from it.

Columns and labels:
rats [1] = tested on: rats
rats [2] = test: Evans Blue leak into lungs of rats after p38 inhibitor; conditions: 1 μmol/kg

| Compound | Lung weight/body weight, peptide alone (rats [1]) | Leak of intravenously injected Evans Blue into lungs (rats [2]) |
| --- | --- | --- |
| C[C@H](NC(=O)[C@H](C)NC(=O)[C@@H]1CCCN1C(=O)[C@H](C)NC(=O)CNC(=O)[C@H](CCCNC(=N)N)NC(=O)[C@H](CCCNC(=N)N)NC(=O)[C@@H](NC(=O)CNC(=O)[C@@H]1CCCN1C(=O)[C@@H](NC(=O)[C@H](CCCNC(=N)N)NC(=O)[C@H](CCCNC(=N)N)NC(=O)[C@H](C)NC(=O)[C@@H]1CCCN1C(=O)[C@H](CC(N)=O)NC(=O)[C@H](CCCNC(=N)N)NC(=O)[C@@H]1CCCN1C(=O)[C@H](Cc1c[nH]cn1)NC(=O)[C@H](C)NC(=O)[C@H](CCCNC(=N)N)NC(=O)[C@H](C)NC(=O)[C@H](CCC(N)=O)NC(=O)[C@H](CCCNC(=N)N)NC(=O)[C@H](C)NC(=O)[C@H](C)NC(=O)[C@H](C)NC(=O)[C@H](CCCNC(=N)N)NC(=O)[C@H](C)NC(=O)[C@@H](N)Cc1ccc(O)cc1)[C@@H](C)O)[C@@H](C)O)C(N)=O [MK2-activating peptide] (H-YARAAARQARAHPRNPARRTPGTRRGAPAA-NH2) | no significant effect |  |
| C[S+]([O-])c1ccc(-c2nc(-c3ccncc3)c(-c3ccc(F)cc3)[nH]2)cc1 (centres unmarked) [SB203580] |  | increase in leak |
